Reference: patent US11008297B2, “Bio-based, multi-aromatic compounds, and methods of making and using same” (ROWAN UNIVERSITY, priority 2017, dated 2021)

Assay: UV-VIS spectroscopy during titration with sodium hydroxide (pH dependence of absorbance)
Assay type: physicochemical
Settings: 0.25 g in 100 mL deionized water, titrated with 0.1 M sodium hydroxide, UV-VIS at every 0.5 pH
Experimental: FIG. 8 comprises a graph illustrating maximum absorbance as a function of pH for a compound of the invention.
Triguaiacol (0.25 g, Example 4) was dissolved in 100 mL of deionized water. The mixture was titrated with 0.1 M sodium hydroxide solution. At every 0.5 pH, UV-VIS spectroscopy was performed on a portion of the mixture. The wavelength in the absorbance spectrum where the absorbance is at a maximum was measured.

With `COc1cc(C(c2ccc(O)c(OC)c2)c2ccc(O)c(OC)c2)ccc1O` [Triguaiacol, 4,4′,4″-methanetriyltris(2-methoxyphenol)] the “wavelength in the absorbance spectrum where the absorbance is at a maximum” value was “decrease with increasing pH”.
